In ChEMBL document CHEMBL1135750, “Phenoxyphenyl sulfone N-formylhydroxylamines (retrohydroxamates) as potent, selective, orally bioavailable matrix metalloproteinase inhibitors” (J Med Chem, 2002):

What was measured:
Matrilysin = target: T1, Matrilysin (Homo sapiens, UniProt P09237); experiment: Inhibition of Matrix metalloprotease-7 (MMP-7) in fluorimetric assay
T1 sequence (P09237 whole entry): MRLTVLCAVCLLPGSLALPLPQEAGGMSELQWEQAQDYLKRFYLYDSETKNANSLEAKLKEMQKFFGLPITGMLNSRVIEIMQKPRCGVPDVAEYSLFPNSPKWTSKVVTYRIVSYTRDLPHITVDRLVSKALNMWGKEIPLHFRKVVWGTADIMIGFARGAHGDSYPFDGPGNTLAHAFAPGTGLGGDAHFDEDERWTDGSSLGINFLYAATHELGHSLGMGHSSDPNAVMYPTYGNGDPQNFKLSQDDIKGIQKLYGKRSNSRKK

Stromelysin-1 = Stromelysin-1 (Homo sapiens, UniProt P08254); experiment: Inhibition of Matrix metalloprotease-3 (MMP-3) in fluorimetric assay
Sequence of Stromelysin-1 (P08254 whole entry): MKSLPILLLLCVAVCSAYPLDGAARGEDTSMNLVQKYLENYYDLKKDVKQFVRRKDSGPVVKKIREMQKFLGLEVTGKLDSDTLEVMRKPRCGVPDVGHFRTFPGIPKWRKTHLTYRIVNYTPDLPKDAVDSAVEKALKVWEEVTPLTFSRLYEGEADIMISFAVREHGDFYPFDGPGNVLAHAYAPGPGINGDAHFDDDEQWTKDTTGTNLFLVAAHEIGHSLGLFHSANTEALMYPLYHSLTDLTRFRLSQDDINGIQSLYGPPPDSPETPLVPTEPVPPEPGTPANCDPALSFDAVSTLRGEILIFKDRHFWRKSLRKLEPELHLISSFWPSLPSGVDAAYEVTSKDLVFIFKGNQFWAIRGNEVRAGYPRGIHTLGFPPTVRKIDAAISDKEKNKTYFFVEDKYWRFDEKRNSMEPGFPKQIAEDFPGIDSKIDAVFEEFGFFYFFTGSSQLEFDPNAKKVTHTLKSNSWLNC

[1] = target: Matrix metalloproteinase-9 (Homo sapiens, UniProt P14780); experiment: In vitro selective inhibition against Matrix metalloprotease-9 (MMP-9) using fluorimetric assay
Sequence of Matrix metalloproteinase-9 (P14780 whole entry): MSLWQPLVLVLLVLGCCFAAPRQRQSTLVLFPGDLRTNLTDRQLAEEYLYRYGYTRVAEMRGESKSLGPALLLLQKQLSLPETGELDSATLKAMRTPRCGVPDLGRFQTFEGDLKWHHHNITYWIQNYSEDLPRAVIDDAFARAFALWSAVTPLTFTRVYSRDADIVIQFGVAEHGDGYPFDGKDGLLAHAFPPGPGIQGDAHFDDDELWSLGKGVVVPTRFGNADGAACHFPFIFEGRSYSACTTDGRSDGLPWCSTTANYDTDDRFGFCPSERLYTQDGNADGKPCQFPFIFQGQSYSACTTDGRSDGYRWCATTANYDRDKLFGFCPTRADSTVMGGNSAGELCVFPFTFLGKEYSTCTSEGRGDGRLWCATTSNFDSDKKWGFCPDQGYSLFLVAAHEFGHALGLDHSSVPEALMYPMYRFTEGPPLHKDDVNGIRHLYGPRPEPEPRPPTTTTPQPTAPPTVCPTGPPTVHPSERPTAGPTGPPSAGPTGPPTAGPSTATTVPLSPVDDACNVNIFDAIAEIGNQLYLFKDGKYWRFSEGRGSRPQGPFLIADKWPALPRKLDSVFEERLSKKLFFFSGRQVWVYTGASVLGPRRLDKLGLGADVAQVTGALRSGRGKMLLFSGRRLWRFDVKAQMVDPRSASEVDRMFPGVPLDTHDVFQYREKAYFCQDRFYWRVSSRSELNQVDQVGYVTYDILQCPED

Collagenase 3 = Collagenase 3 (Homo sapiens, UniProt P45452)
Description: Inhibition of Matrix metalloprotease-13 (MMP-13) in fluorimetric assay

Interstitial collagenase = target: T2, Interstitial collagenase (Homo sapiens, UniProt P03956); experiment: In vitro selective inhibition against matrix metalloprotease-1 (MMP-1) using a fluorimetric assay
T2 sequence (P03956 whole entry): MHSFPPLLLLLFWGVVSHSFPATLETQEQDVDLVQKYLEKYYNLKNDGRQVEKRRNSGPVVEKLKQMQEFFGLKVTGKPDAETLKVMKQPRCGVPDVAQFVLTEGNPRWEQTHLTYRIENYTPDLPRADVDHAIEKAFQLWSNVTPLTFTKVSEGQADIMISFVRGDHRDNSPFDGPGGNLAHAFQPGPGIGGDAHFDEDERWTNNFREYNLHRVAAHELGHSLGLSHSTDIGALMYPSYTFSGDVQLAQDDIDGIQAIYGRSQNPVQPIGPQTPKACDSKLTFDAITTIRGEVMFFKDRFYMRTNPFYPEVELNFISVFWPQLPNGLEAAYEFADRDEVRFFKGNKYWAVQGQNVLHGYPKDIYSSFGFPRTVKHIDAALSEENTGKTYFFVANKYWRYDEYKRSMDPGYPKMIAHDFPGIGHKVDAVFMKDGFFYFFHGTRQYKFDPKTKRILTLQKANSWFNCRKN

[2] = target: 72 kDa type IV collagenase (Homo sapiens, UniProt P08253); experiment: In vitro selective inhibition against matrix metalloprotease-2 (MMP-2) using fluorimetric assay
Sequence of 72 kDa type IV collagenase (P08253 whole entry): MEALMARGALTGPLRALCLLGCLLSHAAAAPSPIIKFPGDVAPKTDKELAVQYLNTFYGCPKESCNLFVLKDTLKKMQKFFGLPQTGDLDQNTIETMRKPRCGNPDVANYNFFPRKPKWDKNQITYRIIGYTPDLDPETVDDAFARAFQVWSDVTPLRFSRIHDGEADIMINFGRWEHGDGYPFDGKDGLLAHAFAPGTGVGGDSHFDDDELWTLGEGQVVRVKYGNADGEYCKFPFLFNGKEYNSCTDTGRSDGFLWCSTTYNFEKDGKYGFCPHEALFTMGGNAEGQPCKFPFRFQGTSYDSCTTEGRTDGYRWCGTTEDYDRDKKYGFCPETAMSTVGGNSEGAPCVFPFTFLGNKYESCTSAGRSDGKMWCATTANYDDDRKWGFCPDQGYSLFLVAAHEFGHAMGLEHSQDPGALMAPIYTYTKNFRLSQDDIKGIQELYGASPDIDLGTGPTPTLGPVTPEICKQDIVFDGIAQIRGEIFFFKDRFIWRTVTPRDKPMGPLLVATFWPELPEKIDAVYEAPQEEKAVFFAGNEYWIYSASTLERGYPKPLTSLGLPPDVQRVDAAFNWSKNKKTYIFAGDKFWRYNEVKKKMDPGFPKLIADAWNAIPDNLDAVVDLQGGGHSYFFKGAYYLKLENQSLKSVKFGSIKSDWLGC

Neutrophil collagenase = Neutrophil collagenase (Homo sapiens, UniProt P22894); experiment: Inhibition of Matrix metalloprotease-8 (MMP-8) in fluorimetric assay
Sequence of Neutrophil collagenase (P22894 whole entry): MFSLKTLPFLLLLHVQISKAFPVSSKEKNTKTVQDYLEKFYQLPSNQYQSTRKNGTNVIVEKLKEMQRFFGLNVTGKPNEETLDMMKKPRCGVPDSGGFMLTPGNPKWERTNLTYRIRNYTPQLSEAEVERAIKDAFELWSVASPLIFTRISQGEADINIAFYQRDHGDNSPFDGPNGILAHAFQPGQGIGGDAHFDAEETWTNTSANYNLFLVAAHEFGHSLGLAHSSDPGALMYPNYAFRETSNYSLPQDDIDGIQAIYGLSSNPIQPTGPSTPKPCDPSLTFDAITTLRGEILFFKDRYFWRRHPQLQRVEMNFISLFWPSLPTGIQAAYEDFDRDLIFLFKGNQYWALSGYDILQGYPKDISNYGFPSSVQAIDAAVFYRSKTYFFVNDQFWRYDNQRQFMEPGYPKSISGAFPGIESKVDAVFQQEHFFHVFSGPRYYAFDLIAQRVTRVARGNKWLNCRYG

THP-1 = experiment: Selective inhibition of the cellular TNF alpha release from LPS-stimulated THP-1 cells; assay type: functional, cell-based; conditions: Homo sapiens

IC50 (Matrilysin): 11000 nM | IC50 (Stromelysin-1): 12 nM | IC50 [1]: 0.5 nM | IC50 (Collagenase 3): 3.3 nM | IC50 (Interstitial collagenase): 8900 nM | IC50 [2]: 0.78 nM | IC50 (Neutrophil collagenase): 5 nM | IC50 (THP-1): > 50000 nM
Compound: CC1(C)OC[C@H]([C@@H](CS(=O)(=O)c2ccc(Oc3ccc(OC(F)(F)F)cc3)cc2)N(O)C=O)O1 (stereo in doubt)
